{
  "source": "ChEMBL document CHEMBL2203000",
  "about": "“Discovery of AC710, a Globally Selective Inhibitor of Platelet-Derived Growth Factor Receptor-Family Kinases” (ACS Med Chem Lett, 2012)",
  "key": {"[1]": {"assay": "(§1) Oral bioavailability in Sprague-Dawley rat plasma at 10 mg/kg by LC-MS/MS analysis", "format": "ADME, organism-based", "settings": "Sprague-Dawley, plasma"}, "[2]": {"assay": "(§2) AUC in Sprague-Dawley rat plasma at 10 mg/kg, po by LC-MS/MS analysis", "format": "ADME, organism-based", "set-up": "dose 10 mg/kg, route oral", "settings": "Sprague-Dawley, plasma"}, "[3]": {"assay": "Clearance in Sprague-Dawley rat plasma at 1 mg/kg, iv and 10 mg/kg, po by LC-MS/MS analysis", "format": "ADME, organism-based"}, "[4]": {"system": "Rattus norvegicus", "assay": "Toxicity in rat assessed as mortality at 800 mg/kg administered for 7 days", "format": "organism-based", "set-up": "dose 800 mg/kg", "settings": "in vivo, 168 h"}, "[5]": {"system": "Rattus norvegicus", "assay": "Toxicity in rat assessed as effect on body weight at 800 mg/kg administered for 7 days", "format": "organism-based", "set-up": "dose 800 mg/kg", "settings": "in vivo, 168 h"}, "[6]": {"assay": "Antitumor activity against mouse M-NFS-60 cells xenografted in CD-1 nude mouse assessed as inhibition of tumor growth at 100 mg/kg, po measured after 4 of tumor implantation", "format": "functional", "settings": "read-out: TGI"}, "[7]": {"assay": "Antitumor activity against mouse M-NFS-60 cells xenografted in CD-1 nude mouse assessed as inhibition of tumor growth at 30 mg/kg, po measured after 4 of tumor implantation", "format": "functional", "settings": "read-out: TGI"}, "[8]": {"system": "Rattus norvegicus", "assay": "Toxicity in rat at 200 mg/kg administered for 7 days", "format": "organism-based", "set-up": "dose 200 mg/kg", "settings": "in vivo, 168 h"}, "[9]": {"assay": "AUC in po dosed CD-1 mouse by LC-MS/MS analysis", "format": "ADME, organism-based", "settings": "plasma"}, "[10]": {"system": "Rattus norvegicus", "assay": "Toxicity in rat assessed as diarrhea at 800 mg/kg administered for 7 days", "format": "organism-based", "set-up": "dose 800 mg/kg", "settings": "in vivo, 168 h"}, "[11]": {"biological_target": "Cytochrome P450 3A4 (Homo sapiens, UniProt P08684)", "sequence (P08684 whole entry)": "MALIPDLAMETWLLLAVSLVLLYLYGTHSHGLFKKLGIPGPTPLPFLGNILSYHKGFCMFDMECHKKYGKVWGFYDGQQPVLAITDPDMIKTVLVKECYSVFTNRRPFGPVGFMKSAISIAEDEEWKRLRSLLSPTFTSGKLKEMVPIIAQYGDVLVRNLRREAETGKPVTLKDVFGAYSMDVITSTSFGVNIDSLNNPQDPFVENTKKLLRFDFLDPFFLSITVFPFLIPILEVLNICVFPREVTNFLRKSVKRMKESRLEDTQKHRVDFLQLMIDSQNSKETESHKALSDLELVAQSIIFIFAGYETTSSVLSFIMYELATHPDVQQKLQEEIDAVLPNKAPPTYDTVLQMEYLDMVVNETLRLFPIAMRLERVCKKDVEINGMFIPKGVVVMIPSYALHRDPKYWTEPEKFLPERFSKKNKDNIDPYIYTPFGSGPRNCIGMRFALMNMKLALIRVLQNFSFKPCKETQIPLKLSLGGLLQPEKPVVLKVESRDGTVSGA", "assay": "Inhibition of CYP3A4", "format": "ADME"}, "[12]": {"biological_target": "Cytochrome P450 2C19 (Homo sapiens, UniProt P33261)", "sequence (P33261 whole entry)": "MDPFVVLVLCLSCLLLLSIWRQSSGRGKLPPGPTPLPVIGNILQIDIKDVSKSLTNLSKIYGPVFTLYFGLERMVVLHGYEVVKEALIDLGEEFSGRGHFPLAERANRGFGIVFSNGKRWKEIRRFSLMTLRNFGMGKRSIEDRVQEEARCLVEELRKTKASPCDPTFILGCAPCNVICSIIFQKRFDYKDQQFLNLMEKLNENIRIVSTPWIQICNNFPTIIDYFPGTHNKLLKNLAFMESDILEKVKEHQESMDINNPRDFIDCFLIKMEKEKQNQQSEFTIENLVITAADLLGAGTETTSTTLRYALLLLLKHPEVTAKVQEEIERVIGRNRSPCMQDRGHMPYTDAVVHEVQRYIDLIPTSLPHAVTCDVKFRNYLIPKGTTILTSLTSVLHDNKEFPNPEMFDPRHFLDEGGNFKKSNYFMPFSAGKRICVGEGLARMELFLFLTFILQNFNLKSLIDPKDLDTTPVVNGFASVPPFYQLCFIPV", "assay": "Inhibition of CYP2C19", "format": "ADME"}, "[13]": {"biological_target": "Cytochrome P450 2D6 (Homo sapiens, UniProt P10635)", "sequence (P10635 whole entry)": "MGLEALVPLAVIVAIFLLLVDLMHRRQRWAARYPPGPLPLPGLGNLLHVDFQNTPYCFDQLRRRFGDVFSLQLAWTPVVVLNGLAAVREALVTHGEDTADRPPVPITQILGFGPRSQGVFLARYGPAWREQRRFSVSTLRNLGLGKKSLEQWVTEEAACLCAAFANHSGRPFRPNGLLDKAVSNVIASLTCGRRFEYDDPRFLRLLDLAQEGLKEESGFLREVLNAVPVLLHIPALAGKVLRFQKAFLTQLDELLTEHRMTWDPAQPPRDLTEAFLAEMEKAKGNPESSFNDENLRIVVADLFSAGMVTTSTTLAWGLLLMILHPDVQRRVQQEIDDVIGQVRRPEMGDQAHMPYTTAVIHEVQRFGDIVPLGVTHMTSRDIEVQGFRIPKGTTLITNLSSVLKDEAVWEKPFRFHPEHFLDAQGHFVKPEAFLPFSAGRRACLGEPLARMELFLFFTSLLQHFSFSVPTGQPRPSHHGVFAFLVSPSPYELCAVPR", "assay": "Inhibition of CYP2D6", "format": "ADME"}, "[14]": {"biological_target": "T1, Cytochrome P450 1A2 (Homo sapiens, UniProt P05177)", "T1 sequence (P05177 whole entry)": "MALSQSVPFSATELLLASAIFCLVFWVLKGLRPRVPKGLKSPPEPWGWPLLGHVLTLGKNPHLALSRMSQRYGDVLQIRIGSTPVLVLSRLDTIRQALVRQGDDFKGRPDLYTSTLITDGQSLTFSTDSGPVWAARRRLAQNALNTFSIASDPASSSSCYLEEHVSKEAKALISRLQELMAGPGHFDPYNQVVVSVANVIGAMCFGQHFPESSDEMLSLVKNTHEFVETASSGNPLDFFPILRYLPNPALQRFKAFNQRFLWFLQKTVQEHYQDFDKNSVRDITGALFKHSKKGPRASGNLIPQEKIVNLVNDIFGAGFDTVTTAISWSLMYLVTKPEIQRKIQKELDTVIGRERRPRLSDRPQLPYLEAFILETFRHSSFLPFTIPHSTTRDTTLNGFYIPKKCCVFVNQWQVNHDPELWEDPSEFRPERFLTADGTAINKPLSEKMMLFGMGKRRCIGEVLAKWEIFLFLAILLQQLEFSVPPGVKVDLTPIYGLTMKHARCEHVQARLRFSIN", "assay": "Inhibition of CYP1A2", "format": "ADME"}, "[15]": {"biological_target": "Cytochrome P450 2C9 (Homo sapiens, UniProt P11712)", "sequence (P11712 whole entry)": "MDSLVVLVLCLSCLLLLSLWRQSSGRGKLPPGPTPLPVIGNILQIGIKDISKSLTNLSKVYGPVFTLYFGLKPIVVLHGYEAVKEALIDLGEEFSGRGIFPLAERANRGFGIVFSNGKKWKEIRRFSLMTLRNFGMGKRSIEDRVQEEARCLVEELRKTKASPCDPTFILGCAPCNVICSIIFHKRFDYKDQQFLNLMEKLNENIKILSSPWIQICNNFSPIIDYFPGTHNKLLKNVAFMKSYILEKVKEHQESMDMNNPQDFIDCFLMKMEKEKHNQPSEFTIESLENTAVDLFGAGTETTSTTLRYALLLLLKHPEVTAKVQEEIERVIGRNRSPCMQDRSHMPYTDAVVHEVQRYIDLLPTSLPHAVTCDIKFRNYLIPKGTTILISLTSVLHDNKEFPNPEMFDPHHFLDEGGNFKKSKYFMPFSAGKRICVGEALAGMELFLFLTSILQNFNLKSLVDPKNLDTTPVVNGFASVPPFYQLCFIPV", "assay": "Inhibition of CYP2C9", "format": "ADME"}, "[16]": {"biological_target": "T2, Mast/stem cell growth factor receptor Kit (Homo sapiens, UniProt P10721)", "T2 sequence (P10721 whole entry)": "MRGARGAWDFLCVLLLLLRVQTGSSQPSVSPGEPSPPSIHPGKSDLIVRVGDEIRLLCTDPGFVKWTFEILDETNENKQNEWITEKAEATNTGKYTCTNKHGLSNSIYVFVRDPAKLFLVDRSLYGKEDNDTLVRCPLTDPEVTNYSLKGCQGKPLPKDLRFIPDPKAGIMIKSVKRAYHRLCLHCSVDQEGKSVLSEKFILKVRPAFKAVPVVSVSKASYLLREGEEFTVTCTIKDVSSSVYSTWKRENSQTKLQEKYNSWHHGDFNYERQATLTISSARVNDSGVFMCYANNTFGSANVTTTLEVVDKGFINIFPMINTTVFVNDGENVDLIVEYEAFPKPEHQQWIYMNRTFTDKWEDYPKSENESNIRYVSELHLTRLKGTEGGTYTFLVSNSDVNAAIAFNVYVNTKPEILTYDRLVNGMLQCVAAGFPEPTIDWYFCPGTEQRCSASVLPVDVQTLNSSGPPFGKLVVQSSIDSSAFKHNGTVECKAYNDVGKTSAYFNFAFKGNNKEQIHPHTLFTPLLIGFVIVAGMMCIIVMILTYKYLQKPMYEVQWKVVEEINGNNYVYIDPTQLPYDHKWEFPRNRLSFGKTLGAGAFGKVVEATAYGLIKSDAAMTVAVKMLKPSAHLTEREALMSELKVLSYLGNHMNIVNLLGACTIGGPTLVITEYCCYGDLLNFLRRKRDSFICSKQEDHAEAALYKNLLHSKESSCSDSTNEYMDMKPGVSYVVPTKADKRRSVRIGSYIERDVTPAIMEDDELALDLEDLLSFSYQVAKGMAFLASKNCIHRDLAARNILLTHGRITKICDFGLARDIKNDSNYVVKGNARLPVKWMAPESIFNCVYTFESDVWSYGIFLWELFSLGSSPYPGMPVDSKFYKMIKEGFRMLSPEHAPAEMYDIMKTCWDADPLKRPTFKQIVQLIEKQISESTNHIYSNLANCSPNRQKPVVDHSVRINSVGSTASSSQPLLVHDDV", "assay": "Binding affinity to KIT expressed in HEK-293 cells", "format": "cell-based, HEK293"}, "[17]": {"biological_target": "T2, Mast/stem cell growth factor receptor Kit", "assay": "Inhibition of KIT phosphorylation in human H526 cells", "format": "cell-based"}, "[18]": {"system": "NFS-60", "assay": "Antitumor activity against mouse M-NFS-60 cells xenografted in CD-1 nude mouse assessed as inhibition of tumor growth measured after 4 days of tumor implantation", "format": "functional, cell-based"}, "[19]": {"system": "Mus musculus", "assay": "Antiarthritic activity in collagen-induced arthritis mouse assessed as decrease in joint swelling and inflammation at 10 to 30 mg/kg, po for 15 days", "format": "functional, organism-based"}, "[20]": {"system": "Mus musculus", "assay": "Antiarthritic activity in po dosed collagen-induced arthritis mouse assessed as decrease in paw clinical scores administered for 15 days", "format": "functional, organism-based"}, "[21]": {"system": "MV4-11", "assay": "Antitumor activity against human MV4-11 cells xenografted in SCID mouse assessed as complete reduction in tumor volume at 3 to 30 mg/kg for 2 weeks", "format": "functional, organism-based"}, "[22]": {"system": "MV4-11", "assay": "Antitumor activity against human MV4-11 cells xenografted in SCID mouse assessed as reduction in tumor volume at 0.3 mg/kg for 2 weeks", "format": "functional, organism-based", "set-up": "dose 0.3 mg/kg"}, "[23]": {"system": "Rattus norvegicus", "assay": "as §1", "format": "ADME, organism-based", "settings": "in vivo"}, "[24]": {"system": "Rattus norvegicus", "assay": "as §2", "format": "ADME, organism-based", "set-up": "dose 10 mg/kg, route oral", "settings": "in vivo"}, "[25]": {"assay": "Aqueous solubility of the compound in water", "format": "physicochemical"}},
  "note": "Calls of active or inactive are those of the source. The calls are words filed in the database; no cut-off is given here.",
  "data": [
    {"compound": "CC1(C)CC(Oc2ccc(C(=O)Nc3ccc(NC(=O)Nc4cc(C(C)(C)C)on4)cc3)nc2)CC(C)(C)N1", "values": [
      {"measurement": "bioavailability", "setting": "[1]", "result": 8, "unit": "%"},
      {"measurement": "AUC", "setting": "[2]", "result": 2.4, "unit": "µM·h"},
      {"measurement": "clearance", "setting": "[3]", "result": 11, "unit": "mL/min/kg"}
    ]},
    {"compound": "CN1C(C)(C)CC(Oc2ccc(C(=O)Nc3ccc(NC(=O)Nc4cc(C(C)(C)C)on4)cc3)nc2)CC1(C)C", "values": [
      {"measurement": "Activity", "setting": "[4]", "result": "Toxic"},
      {"measurement": "Activity", "setting": "[5]", "result": "Toxic"},
      {"measurement": "inhibition in vivo at 100 mg/kg", "setting": "[6]", "result": 92, "unit": "%"},
      {"measurement": "inhibition in vivo at 30 mg/kg", "setting": "[7]", "result": 82, "unit": "%"},
      {"measurement": "Activity", "setting": "[8]", "result": "Non-toxic"},
      {"measurement": "AUC", "setting": "[9]", "result": 65.8, "unit": "µM·h"},
      {"measurement": "Activity", "setting": "[10]", "result": "Toxic"},
      {"measurement": "IC50", "setting": "[11]", "result": "> 40", "unit": "µM"},
      {"measurement": "IC50", "setting": "[12]", "result": "> 40", "unit": "µM"},
      {"measurement": "IC50", "setting": "[13]", "result": "> 40", "unit": "µM"},
      {"measurement": "IC50", "setting": "[14]", "result": "> 40", "unit": "µM"},
      {"measurement": "IC50", "setting": "[15]", "result": "> 40", "unit": "µM"},
      {"measurement": "Kd", "setting": "[16]", "result": 0.0011, "unit": "µM"},
      {"measurement": "IC50", "setting": "[17]", "result": 0.008, "unit": "µM"},
      {"measurement": "bioavailability", "setting": "[1]", "result": 31.5, "unit": "%"},
      {"measurement": "AUC", "setting": "[2]", "result": 9.1, "unit": "µM·h"},
      {"measurement": "clearance", "setting": "[3]", "result": 10.9, "unit": "mL/min/kg"}
    ]},
    {"compound": "CCN1C(C)(C)CC(Oc2ccc(C(=O)Nc3ccc(NC(=O)Nc4cc(C(C)(C)C)on4)cc3)nc2)CC1(C)C", "values": [
      {"measurement": "inhibition", "setting": "[18]", "result": "Dose-dependent effect"},
      {"measurement": "inhibition", "setting": "[19]", "result": "Active"},
      {"measurement": "inhibition", "setting": "[20]", "result": "Active"},
      {"measurement": "Activity", "setting": "[21]", "result": "Active"},
      {"measurement": "Activity", "setting": "[22]", "result": "Active"}
    ]},
    {"compound": "CC(C)(C)c1cc(NC(=O)Nc2ccc(NC(=O)c3ccc(OC4CCNCC4)cn3)cc2)no1", "values": [
      {"measurement": "F", "setting": "[23]", "result": 1, "unit": "%"},
      {"measurement": "AUC", "setting": "[24]", "result": 1.6, "unit": "µM·h"}
    ]},
    {"compound": "CC(C)N1CCC(Oc2ccc(C(=O)Nc3ccc(NC(=O)Nc4cc(C(C)(C)C)on4)cc3)nc2)CC1", "values": [
      {"measurement": "bioavailability", "setting": "[1]", "result": 17.5, "unit": "%"},
      {"measurement": "AUC", "setting": "[2]", "result": 3.5, "unit": "µM·h"},
      {"measurement": "clearance", "setting": "[3]", "result": 16, "unit": "mL/min/kg"}
    ]},
    {"compound": "CC(C)(C)c1cc(NC(=O)Nc2ccc(NC(=O)c3ccc(OC4CCN(C(C)(C)C)CC4)cn3)cc2)no1", "values": [
      {"measurement": "bioavailability", "setting": "[1]", "result": 22, "unit": "%"},
      {"measurement": "AUC", "setting": "[2]", "result": 5, "unit": "µM·h"},
      {"measurement": "clearance", "setting": "[3]", "result": 15, "unit": "mL/min/kg"}
    ]},
    {"compound": "CN1C(C)(C)CC(Oc2ccc(C(=O)Nc3ccc(NC(=O)Nc4cc(C(C)(C)C)on4)cc3)nc2)CC1(C)C.CS(=O)(=O)O", "values": [
      {"measurement": "solubility", "setting": "[25]", "result": "> 1000", "unit": "µg/mL"}
    ]},
    {"compound": "CCN1CCC(c2ccc(C(=O)Nc3ccc(NC(=O)Nc4cc(C(C)(C)C)on4)cc3)nc2)CC1", "values": [
      {"measurement": "bioavailability", "setting": "[1]", "result": 9.9, "unit": "%"},
      {"measurement": "AUC", "setting": "[2]", "result": 0.9, "unit": "µM·h"},
      {"measurement": "clearance", "setting": "[3]", "result": 37.6, "unit": "mL/min/kg"}
    ]},
    {"compound": "CCN1CCC(Oc2ccc(C(=O)Nc3ccc(NC(=O)Nc4cc(C(C)(C)C)on4)cc3)nc2)CC1.CS(=O)(=O)O", "values": [
      {"measurement": "solubility", "setting": "[25]", "result": 1130, "unit": "µg/mL"}
    ]},
    {"compound": "CC(C)(C)c1cc(NC(=O)Nc2ccc(NC(=O)c3cc(OC4CCNCC4)ccn3)cc2)no1", "values": [
      {"measurement": "bioavailability", "setting": "[1]", "result": 3, "unit": "%"},
      {"measurement": "AUC", "setting": "[2]", "result": 0.4, "unit": "µM·h"},
      {"measurement": "clearance", "setting": "[3]", "result": 35.8, "unit": "mL/min/kg"}
    ]}
  ]
}
